We go through 3 compounds from patent publication US20180030093A1, “SELF-ASSEMBLING ULTRASHORT ALIPHATIC CYCLIC PEPTIDES FOR BIOMEDICAL APPLICATIONS” (Agency for Science, Technology and Research, priority 2015, published 2018).

Entries after “also recorded” stand apart in the source; their conditions may differ. Non-standard residues stand in square brackets, D forms with d. Residues, ends and D or L forms follow the SMILES beside them.

Series [1] in a line: Solubility of the cyclic peptides in MilliQ water. The procedure:
(§1) In order to determine the minimum gelation concentration in water, the cyclic peptides were attempted to be dissolved in MilliQ water.
(§2) In order to introduce a charged amino acid residue cLK6 was synthesized and its ability to form hydrogels was investigated. For this purpose cLK6 was dissolved at a concentration of 10 mg/mL in water.

Series [2] can be described thus: Gelation / self-assembly in water. Format: physicochemical. The procedure: as §1, §2
Series [3] is described as follows: Stimuli response of gelation to salt (1× PBS). The series is classed as physicochemical. The following applies: 5 mg/mL in 1× PBS, after vortexing. The procedure:
Our previous studies on the parent peptide Ac-LIVAGK-NH2 have shown stimuli responsive behaviour to salt, which allows to reduce the minimum gelation concentration by 50%. […] For this purpose, cLK6 was dissolved in 9 parts of water and afterwards 1 part of 10× PBS solution was added.

The conditions of series [4]: stimuli responsive behaviour to salt; applicant's previous studies; cited from earlier work.

With `CC[C@H](C)[C@@H]1NC(=O)[C@@H](CC(C)C)NC(=O)[C@H](CCCCN)NC(=O)CNC(=O)[C@H](C)NC(=O)[C@@H](C(C)C)NC1=O` [cLK6, cLIVAGK] (cyclo([dL]I[dV]AGK)), in series [1] (10 mg/mL in water), the “solubility in water at 10 mg/mL” value is “full solubility was only achieved, when the peptide solution was heated at 60 °C for about 2 h”. For the same compound, the gel formation result in series [2] (5 mg/mL in water, prepared in the same way, overnight) is reported as “clear hydrogel was formed”; in series [2] (10 mg/mL in water, heated at 60° C., then standing at room temperature) it was “opaque sol gel was formed”; in series [2] (peptide concentration further reduced below 5 mg/mL in water) it was “no hydrogel formation”. In addition, the “gel formation in salt solution” value in series [3] is on record as “only peptide aggregation, resulting in precipitation”.

As for `CC[C@H](C)[C@@H]1NC(=O)[C@@H](CC(C)C)NC(=O)[C@H](CO)NC(=O)CNC(=O)[C@H](C)NC(=O)[C@@H](C(C)C)NC1=O` [cLS6, cLIVAGS] (cyclo([dL]I[dV]AGS)), the solubility in water result in series [1] (MilliQ water) is “low solubility; also recorded: limited water solubility”. Moreover, the self-assembly in water entry in series [2] (dissolved in hexafluoroisopropanol (HFIP) and dropped slowly into water) is given as “gelatinous “precipitate” is formed; also recorded: still displays self-assembling properties”.

Turning to “Ac-LIVAGK-NH2 [linear parent ultrashort peptide of cLK6, previously reported by the inventors]”, the “reduction of the minimum gelation concentration by salt” value in series [4] is 50%.
